Measured values taken from PubChem BioAssay AID330 (DTP/NCI, 2004).
Several values for one entry are separate records, joined by “and”; a condition that tells them apart may be missing. Equal entries are not always repeated. Toxic doses and inconclusive results are not listed. Square brackets hold non-standard residues; d marks the D form. Peptide text beside a SMILES is read from it. * marks the point of attachment. Cbz = O=C(OCc1ccccc1)*; Sar = CNCC(=O)O

Test system: P388 leukemia ip, CD2F1 mice, survival T/C
Assay: NCI In Vivo Anticancer Drug Screen. Data for tumor model P388 Leukemia (intraperitoneal) in CD2F1 (CDF1) mice
Conditions: endpoint: median survival time, higher = longer survival
In short: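 Mice carrying the transplanted tumor received test compound or vehicle. Survival was recorded in each group, and the value is the treated-group measurement divided by that of the vehicle-treated control group.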

[1] = dose: 50.0 mg/kg/injection, schedule: Q01DX009 (ip), vehicle: saline with Tween-80
[2] = dose: 100.0 mg/kg/injection, schedule: Q01DX009 (ip), vehicle: saline with Tween-80
[3] = dose: 200.0 mg/kg/injection, schedule: Q01DX009 (ip), vehicle: saline with Tween-80
[4] = dose: 60.0 mg/kg/injection, schedule: Q01DX005 (ip), vehicle: saline with Tween-80
[5] = dose: 120.0 mg/kg/injection, schedule: Q01DX005 (ip), vehicle: saline with Tween-80
[6] = dose: 50.0 mg/kg/injection, schedule: Q01DX009 (ip), vehicle: Klucel (hydroxypropylcellulose) (HPC)
[7] = dose: 100.0 mg/kg/injection, schedule: Q01DX009 (ip), vehicle: Klucel (hydroxypropylcellulose) (HPC)
[8] = dose: 12.5 mg/kg/injection, schedule: Q01DX009 (ip), vehicle: saline with Tween-80
[9] = dose: 100.0 mg/kg/injection, schedule: Q04DX003 (ip), vehicle: saline with Tween-80
[10] = dose: 200.0 mg/kg/injection, schedule: Q04DX003 (ip), vehicle: saline with Tween-80
[11] = dose: 400.0 mg/kg/injection, schedule: Q04DX003 (ip), vehicle: saline with Tween-80
[12] = dose: 50.0 mg/kg/injection, schedule: Q01DX005 (ip), vehicle: saline with Tween-80
[13] = dose: 100.0 mg/kg/injection, schedule: Q01DX005 (ip), vehicle: saline with Tween-80
[14] = dose: 200.0 mg/kg/injection, schedule: Q01DX005 (ip), vehicle: saline with Tween-80
[15] = dose: 400.0 mg/kg/injection, schedule: Q01DX009 (ip), vehicle: saline with Tween-80
[16] = dose: 100.0 mg/kg/injection, schedule: Q04DX002 (ip), vehicle: saline with Tween-80

## CN(C)C(=S)SC1OC(CO)C(OC2OC(CO)C(O)C(O)C2O)C(O)C1O (stereo unspecified)
[1]
  T/C: 93 % of control
[2]
  T/C: 90 % of control
[3]
  T/C: 88 % of control

## c1cc2cc(-c3ccc4oc(C5=NCCN5)cc4c3)[nH]c2cc1C1=NCCN1
dose: 50.0 mg/kg/injection, schedule: Q01DX005 (ip), vehicle: Klucel (hydroxypropylcellulose) (HPC)
  T/C: 163 % of control
dose: 100.0 mg/kg/injection, schedule: Q01DX005 (ip), vehicle: Klucel (hydroxypropylcellulose) (HPC)
  T/C: 160 % of control
dose: 200.0 mg/kg/injection, schedule: Q01DX005 (ip), vehicle: Klucel (hydroxypropylcellulose) (HPC)
  T/C: 193 % of control

## Cc1cccc(C(C)C)c1NC(=O)C(=O)C(C#N)c1ccc(CC#N)cc1 (stereo unspecified)
[4]
  T/C: 99 % of control
[5]
  T/C: 98 % of control

## CCc1nc(N)nc(N)c1-c1ccc(OC)c([N+](=O)[O-])c1
[5]
  T/C: 151 % of control and 189 % of control
dose: 480.0 mg/kg/injection, schedule: Q01DX005 (ip), vehicle: saline with Tween-80
  T/C: 90 % of control

## Cc1nc(Br)c(Br)n1Cc1ccccc1
[4]
  T/C: 99 % of control
[5]
  T/C: 99 % of control
dose: 240.0 mg/kg/injection, schedule: Q01DX005 (ip), vehicle: saline with Tween-80
  T/C: 105 % of control

## O=[N+]([O-])c1cc([N+](=O)[O-])c(N2CC2)cc1C1=NCCO1
[6]
  T/C: 98 % of control
[7]
  T/C: 110 % of control

## COc1ccc2c(c1OC)C(C(C)=O)N1CCc3cc4c(cc3C1=C2)OCO4 (stereo unspecified)
dose: 0.63 mg/kg/injection, schedule: Q01DX009 (ip), vehicle: distilled water + Tween-80
  T/C: 106 % of control
dose: 1.25 mg/kg/injection, schedule: Q01DX009 (ip), vehicle: distilled water + Tween-80
  T/C: 101 % of control
dose: 2.5 mg/kg/injection, schedule: Q01DX009 (ip), vehicle: distilled water + Tween-80
  T/C: 99 % of control
dose: 5.0 mg/kg/injection, schedule: Q01DX009 (ip), vehicle: distilled water + Tween-80
  T/C: 96 % of control
dose: 10.0 mg/kg/injection, schedule: Q01DX009 (ip), vehicle: distilled water + Tween-80
  T/C: 101 % of control
dose: 20.0 mg/kg/injection, schedule: Q01DX009 (ip), vehicle: distilled water + Tween-80
  T/C: 101 % of control

## COc1nncc(-c2cnnc(OC)n2)n1
dose: 3.13 mg/kg/injection, schedule: Q01DX009 (ip), vehicle: saline with Tween-80
  T/C: 105 % of control
dose: 6.25 mg/kg/injection, schedule: Q01DX009 (ip), vehicle: saline with Tween-80
  T/C: 100 % of control
[8]
  T/C: 102 % of control

## CC(CCc1ccccc1)NC1=NCCO1 (stereo unspecified)
[9]
  T/C: 95 % of control
[10]
  T/C: 100 % of control
[11]
  T/C: 90 % of control

## CN(CC(=O)O)C(=O)CNC(=O)CN (H-Gly-Gly-[Sar]-OH)
dose: 50.0 mg/kg/injection, schedule: Q01DX005 (ip), vehicle: saline
  T/C: 91 % of control
dose: 100.0 mg/kg/injection, schedule: Q01DX005 (ip), vehicle: saline
  T/C: 92 % of control
dose: 200.0 mg/kg/injection, schedule: Q01DX005 (ip), vehicle: saline
  T/C: 91 % of control

## O=c1c2ccccc2oc2nc3ccc(Cl)cc3n12
[12]
  T/C: 112 % of control
[13]
  T/C: 101 % of control
[14]
  T/C: 98 % of control

## C[N+]1(C)CCCC(O)(C(=O)c2ccccc2)C1 (stereo unspecified)
dose: 100.0 mg/kg/injection, schedule: Q01DX001 (ip), vehicle: saline
  T/C: 98 % of control
dose: 200.0 mg/kg/injection, schedule: Q01DX001 (ip), vehicle: saline
  T/C: 100 % of control

## NC1=NN(O)C2=CC(F)C=CC2=N1 (stereo unspecified)
[6]
  T/C: 103 % of control and 91 % of control
[7]
  T/C: 101 % of control and 114 % of control and 92 % of control
dose: 200.0 mg/kg/injection, schedule: Q01DX009 (ip), vehicle: Klucel (hydroxypropylcellulose) (HPC)
  T/C: 100 % of control and 91 % of control
dose: 400.0 mg/kg/injection, schedule: Q01DX009 (ip), vehicle: Klucel (hydroxypropylcellulose) (HPC)
  T/C: 105 % of control

## CC1(C)SC(=O)N(CCC#CCCc2ccccc2)C1=O
dose: 60.0 mg/kg/injection, schedule: Q01DX005 (ip), vehicle: Klucel (hydroxypropylcellulose) (HPC)
  T/C: 102 % of control
dose: 120.0 mg/kg/injection, schedule: Q01DX005 (ip), vehicle: Klucel (hydroxypropylcellulose) (HPC)
  T/C: 100 % of control
dose: 240.0 mg/kg/injection, schedule: Q01DX005 (ip), vehicle: Klucel (hydroxypropylcellulose) (HPC)
  T/C: 92 % of control

## COC(=O)CCCCCC(O)C1CCC2OC(=O)CC21C (stereo unspecified)
[2]
  T/C: 118 % of control
[3]
  T/C: 100 % of control
[15]
  T/C: 100 % of control

## Cn1c(=O)c2c(=S)sc(=S)[nH]c2n(C)c1=O
dose: 25.0 mg/kg/injection, schedule: Q04DX002 (ip), vehicle: saline with Tween-80
  T/C: 106 % of control
dose: 50.0 mg/kg/injection, schedule: Q04DX002 (ip), vehicle: saline with Tween-80
  T/C: 106 % of control
[16]
  T/C: 106 % of control

## Cc1cn(C2OC(CO)C(O)C2O)c(=O)[nH]c1=O (stereo unspecified)
[2]
  T/C: 90 % of control
[9]
  T/C: 104 % of control
[3]
  T/C: 104 % of control
[10]
  T/C: 104 % of control
[15]
  T/C: 100 % of control
[11]
  T/C: 100 % of control

## O=C1OCC/C1=C1\CCCO1
[8]
  T/C: 112 % of control and 97 % of control
dose: 25.0 mg/kg/injection, schedule: Q01DX009 (ip), vehicle: saline with Tween-80
  T/C: 100 % of control and 102 % of control
[1]
  T/C: 98 % of control and 99 % of control
[2]
  T/C: 102 % of control and 108 % of control and 116 % of control
[3]
  T/C: 112 % of control
[15]
  T/C: 113 % of control

## NNc1ncnc2c1ncn2C1OC(CO)C(O)C1O (stereo unspecified)
dose: 19.8 mg/kg/injection, schedule: Q01DX009 (ip), vehicle: saline
  T/C: 120 % of control
dose: 30.0 mg/kg/injection, schedule: Q01DX009 (ip), vehicle: saline
  T/C: 150 % of control
dose: 45.0 mg/kg/injection, schedule: Q01DX009 (ip), vehicle: saline
  T/C: 160 % of control
[1]
  T/C: 120 % of control
dose: 66.0 mg/kg/injection, schedule: Q01DX009 (ip), vehicle: saline with Tween-80
  T/C: 112 % of control
[2]
  T/C: 163 % of control
dose: 100.0 mg/kg/injection, schedule: Q04DX003 (ip), vehicle: saline
  T/C: 118 % of control
dose: 200.0 mg/kg/injection, schedule: Q04DX003 (ip), vehicle: saline
  T/C: 86 % of control

## Cc1cn(CCCCCOc2c3ccoc3cc3oc(=O)ccc23)c(=O)[nH]c1=O
dose: 100.0 mg/kg/injection, schedule: Q01DX001 (ip), vehicle: Klucel (hydroxypropylcellulose) (HPC)
  T/C: 92 % of control
dose: 200.0 mg/kg/injection, schedule: Q01DX001 (ip), vehicle: Klucel (hydroxypropylcellulose) (HPC)
  T/C: 90 % of control
dose: 400.0 mg/kg/injection, schedule: Q01DX001 (ip), vehicle: Klucel (hydroxypropylcellulose) (HPC)
  T/C: 87 % of control

## COCOc1c(C)ccc2c1CCC2
[16]
  T/C: 91 % of control
dose: 200.0 mg/kg/injection, schedule: Q04DX002 (ip), vehicle: saline with Tween-80
  T/C: 97 % of control
dose: 400.0 mg/kg/injection, schedule: Q04DX002 (ip), vehicle: saline with Tween-80
  T/C: 95 % of control

## CCCCCCCCCCCCCCCC[N+]1(CCCCCCCCCCCC)CCSCC1 (tested in a mixture with another compound)
dose: 10.0 mg/kg/injection, schedule: Q01DX009 (ip), vehicle: saline with Tween-80
  T/C: 112 % of control
dose: 40.0 mg/kg/injection, schedule: Q01DX009 (ip), vehicle: saline with Tween-80
  T/C: 121 % of control

## CSCCC(NC(=O)C1CCCN1C(=O)OCc1ccccc1)C(=O)O (stereo not drawn) (Cbz-Pro-Met-OH; configuration not given here)
[12]
  T/C: 104 % of control
[13]
  T/C: 106 % of control
[14]
  T/C: 105 % of control

## CC(C)c1ccc(/C=N\NC(=S)N/N=C\c2ccc(C(C)C)cc2)cc1
dose: 6.25 mg/kg/injection, schedule: Q01DX009 (ip), vehicle: Klucel (hydroxypropylcellulose) (HPC)
  T/C: 96 % of control
dose: 12.5 mg/kg/injection, schedule: Q01DX009 (ip), vehicle: Klucel (hydroxypropylcellulose) (HPC)
  T/C: 86 % of control

## COc1cc(C)nc2ccc(Cc3ccc4nc(C)cc(OC)c4c3)cc12
dose: 25.0 mg/kg/injection, schedule: Q04DX003 (ip), vehicle: saline with Tween-80
  T/C: 94 % of control
dose: 50.0 mg/kg/injection, schedule: Q04DX003 (ip), vehicle: saline with Tween-80
  T/C: 91 % of control

## O=c1c(N=Nc2nc3ccc([N+](=O)[O-])cc3s2)c(O)n(-c2ccccc2)c(=S)n1-c1ccccc1
dose: 60.0 mg/kg/injection, schedule: Q01DX005 (ip), vehicle: saline
  T/C: 96 % of control
dose: 120.0 mg/kg/injection, schedule: Q01DX005 (ip), vehicle: saline
  T/C: 96 % of control
dose: 240.0 mg/kg/injection, schedule: Q01DX005 (ip), vehicle: saline
  T/C: 92 % of control
